Experiment [1] concerns S. aureus. The class given is cell-based.
Experiment [2] concerns RNAIII. The class given is cell-based, S. aureus.
Another experiment concerns S. epidermidis (51625). The class given is cell-based.
For experiment [3], the system named is S. aureus.
In the next experiment the test system is S. haemolyticus. The experiment is classed as cell-based.
For experiment [4], the system named is S. aureus. Description: Mouse model, Staph mixed with drug prior to IP injection. The class given is in vivo, mice. The following applies: for % Survival at 24 hr.: mixed with Staph prior to IP injection; for Number of mice that survived at 24 hours post-injection (in words): VIF-1 3 or 15 mg/kg, FTB 1, 2 or 5 mg/kg. On the procedure: (§1) The assay was carried out by injecting a fixed amount of a S. aureus culture, typically containing from about 5×10^9 cells from an early exponential growth stage culture, by intraperitoneal (IP) injection into mice, based on the method described by Thakker et al., 1998.
In one study, the S. aureus was mixed with VIF-1 or FTB, prior to IP injection.

The subject of experiment [5] is S. aureus. The experiment can be described thus: Mouse model, Staph injected IP 20 min prior to drug injection (IP). The experiment is classed as in vivo, mice. The following applies: for % Survival at 24 hr.: 20 min after Staph; for Number of mice that survived at 24 hours post-injection relative to vehicle (in words): VIF-1 20 or 15 mg/kg, FTB 10 mg/kg. As to the method: as §1
In another approach, S. aureus was injected IP 20 minutes prior to IP injection of VIF-1 or FTB.
The commonly used anti-Staphylococcal antibiotics, methicillin and vancomycin, were tested in this model.

The subject of experiment [6] is S. aureus. The experiment can be described thus: microbe, parasite or virus in culture. The following applies: Staphylococcus aureus, Erythrocyte, in Oryctolagus cuniculus.
The test system of experiment [7] is RNAIII. Conditions: reported by Balaban et al., 1998; cited from earlier work.
Setting [8] is: read-out: Inhibition of α-Hemolysin production, Table 4, (n) in cell = number of determinations.

In brackets after ≈: the same amount, converted by molar mass. Where two headings read alike, the source gives them in different places. Ends that are not written are not given here. Peptide text beside a SMILES is read from it. * marks the point of attachment. Fmoc = O=C(OCC1c2ccccc2-c2ccccc21)*; X1 = O=C(Sc1ccccc1)* A value given as a limit tells only on which side of the number the result lay.

Regarding `O=C(Nc1ccccc1C(=O)O)OCC1c2ccccc2-c2ccccc21` [Reference #4, Fmoc-2-aminobenzoic acid], the “Inhibition of TSST-1” value in the experiment with S. aureus [1] stood at 2.0 µg/mL. Moreover, the “Inhibition of RNA III activation” value in the experiment with RNAIII [2] is given as 2.9 (3) μg/ml. Moreover, the “IC50, α-toxin production” value was 0.6 µg/mL (≈ 1.67 µM) in the experiment on S. warneri, 0.5 µg/mL (≈ 1.39 µM) in the experiment with S. epidermidis (51625) and 0.7 µg/mL (≈ 1.95 µM) with S. haemolyticus. In addition, in the experiment on S. aureus [3], the “Inhibition of α-Hemolysin production” value was 0.9 (5) μg/ml. The “Inhibition of α-toxin production (in words)” value in the experiment on S. aureus [3] is on record as “inhibited α-toxin production”.
`O=C(O)[C@H]1c2ccccc2CCN1C(=O)OCC1c2ccccc2-c2ccccc21` [Reference #16]: the “Inhibition of TSST-1” value in the experiment with S. aureus [1] came to 4.0 µg/mL. In the experiment on RNAIII [2], the “Inhibition of RNA III activation” value was 3.5 (3) μg/ml. The entries for the “IC50, α-toxin production” value in the experiment with S. warneri, with S. epidermidis (51625) and in the experiment with S. haemolyticus were 0.6 µg/mL (≈ 1.5 µM), 0.5 µg/mL (≈ 1.25 µM) and 0.6 µg/mL (≈ 1.5 µM), respectively. The “Inhibition of α-Hemolysin production” value with S. aureus [3] is 1.3 (3) μg/ml. Moreover, the “Inhibition of α-toxin production (in words)” value in the experiment with S. aureus [3] is reported as “inhibited α-toxin production”.
Regarding `O=C(N[C@@H](Cc1cn(C(c2ccccc2)(c2ccccc2)c2ccccc2)cn1)C(=O)O)OCC1c2ccccc2-c2ccccc21` [Reference #29, Fmoc-L-His(Trt)-OH], the “Inhibition of TSST-1” value in the experiment on S. aureus [1] was 4.0 µg/mL. Further, the “Inhibition of RNA III activation” value with RNAIII [2] was 3.7 (3) μg/ml. Moreover, the “Inhibition of α-Hemolysin production” value with S. aureus [3] is recorded as 2.7 (3) μg/ml.
Regarding `CC(C)(C)OC(=O)n1cc(C[C@H](NC(=O)OCC2c3ccccc3-c3ccccc32)C(=O)O)c2ccccc21` [Reference #35, Fmoc-L-Trp(Boc)-OH], the “Inhibition of TSST-1” value with S. aureus [1] came out at 5.0 µg/mL. For the same compound, in the experiment on RNAIII [2], the “Inhibition of RNA III activation” value turned out to be 1.4 µg/mL. For the same compound, the “% Survival at 24 hr.” value in the experiment on S. aureus [4] (0.2 mg/kg) turned out to be 0%; in the experiment on S. aureus [4] (1 mg/kg), 83%; in the experiment on S. aureus [4] (2 mg/kg), 67%; in the experiment on S. aureus [4] (5 mg/kg), 83%; in the experiment with S. aureus [5] (2 mg/kg IP), 25%; with S. aureus [5] (10 mg/kg IP), 71%. Also, the “Number of mice that survived at 24 hours post-injection (in words)” value in the experiment with S. aureus [4] is “effective to significantly increase the number of mice that survived”. For the same compound, the “IC50, α-toxin production” value in the experiment on S. warneri was found to be 0.6 µg/mL (≈ 1.14 µM); in the experiment with S. epidermidis (51625), 0.5 µg/mL (≈ 0.95 µM); in the experiment with S. aureus [3], 0.8 µg/mL (≈ 1.52 µM); in the experiment with S. haemolyticus, 0.6 µg/mL (≈ 1.14 µM). For the same compound, the “Number of mice that survived at 24 hours post-injection relative to vehicle (in words)” value with S. aureus [5] is reported as “effective to significantly increase the number of mice that survived”. The “Inhibition of α-Hemolysin production” value with S. aureus [3] is given as 1.2 (13) μg/ml. Also, the “Inhibition of α-toxin production (in words)” value in the experiment on S. aureus [3] is recorded as “inhibited α-toxin production”.
For `N[C@@H](Cc1c[nH]c2ccccc12)C(=O)O` [Reference #46, H-L-Trp-OH], the “Inhibition of TSST-1” value with S. aureus [1] was greater than 10.0 µg/mL. The “Inhibition of RNA III activation” value in the experiment with RNAIII [2] is recorded as >10.0 (3) μg/ml.
Take `O=C(N[C@@H](Cc1ccc(Br)cc1)C(=O)O)OCC1c2ccccc2-c2ccccc21` [Reference #73, Fmoc-4-bromo-L-phenylalanine]: the IC50 in the experiment on S. aureus [6] (setting [8]) came out at 1.7 µg/mL (≈ 3.65 µM).
Same read-out and setting: as for `Cc1ccc(C[C@H](NC(=O)OCC2c3ccccc3-c3ccccc32)C(=O)O)cc1` [Reference #74, Fmoc-4-methyl-L-phenylalanine], the figure is 2.3 µg/mL (≈ 5.73 µM); as for `O=C(N[C@@H](CC1CCCCC1)C(=O)O)OCC1c2ccccc2-c2ccccc21` [Reference #82, Fmoc-beta-cyclohexyl-L-alanine], 4 µg/mL (≈ 10.2 µM).
`O=C(N[C@@H](Cc1cccs1)C(=O)O)OCC1c2ccccc2-c2ccccc21` [Reference #83, Fmoc-beta-(2-thienyl)-L-alanine]: the IC50 came out at 25 µg/mL (≈ 63.5 µM) with S. aureus [6] (read-out: IC50 (relative activity), text b100/b101, assay not named, values match the α-hemolysin column of Table 4) and 25 µg/mL (≈ 63.5 µM) with S. aureus [6] (setting [8]).
With `O=C(NC1(C(=O)O)CCCCC1)OCC1c2ccccc2-c2ccccc21` [Reference #86, Fmoc-1-amino-1-cyclohexane carboxylic acid], in the experiment with S. aureus [1], the “Inhibition of TSST-1” value came to 10.0 µg/mL. Also, the “Inhibition of RNA III activation” value with RNAIII [2] is on record as 3.0 (3) μg/ml. Further, the results for the “IC50, α-toxin production” value in the experiment on S. warneri, in the experiment on S. epidermidis (51625) and in the experiment with S. haemolyticus were 0.6 µg/mL (≈ 1.64 µM), 0.4 µg/mL (≈ 1.09 µM) and 0.6 µg/mL (≈ 1.64 µM), respectively. Further, in the experiment on S. aureus [3], the “Inhibition of α-Hemolysin production” value is 2.1 (3) μg/ml. Further, the “Inhibition of α-toxin production (in words)” value in the experiment with S. aureus [3] is recorded as “inhibited α-toxin production”.
For `O=C(O)[C@@H]1CC[C@H](c2ccccc2)N1C(=O)OCC1c2ccccc2-c2ccccc21` [Reference #113, (2S,5R)-Fmoc-5-phenyl-pyrrolidine-2-carboxylic acid], the “Inhibition of TSST-1” value with S. aureus [1] worked out at 6.0 µg/mL. In addition, the “Inhibition of RNA III activation” value with RNAIII [2] is recorded as 3.0 (1) μg/ml. In addition, the “IC50, α-toxin production” value is 0.6 µg/mL (≈ 1.45 µM) with S. warneri, 0.5 µg/mL (≈ 1.21 µM) with S. epidermidis (51625), 0.9 µg/mL (≈ 2.18 µM) in the experiment on S. aureus [3] and 0.7 µg/mL (≈ 1.69 µM) in the experiment with S. haemolyticus. In addition, the “Inhibition of α-Hemolysin production” value in the experiment on S. aureus [3] is on record as 1.7 (5) μg/ml. Moreover, in the experiment with S. aureus [3], the “Inhibition of α-toxin production (in words)” value was “inhibited α-toxin production”.
As to `O=C(N[C@@H](C/C=C/c1ccccc1)C(=O)O)OCC1c2ccccc2-c2ccccc21` [Reference #124, Fmoc-L-styrylalanine], the “Inhibition of TSST-1” value in the experiment on S. aureus [1] was 10.0 µg/mL. Besides, in the experiment on RNAIII [2], the “Inhibition of RNA III activation” value is given as 2.9 (1) μg/ml. The figures for the “IC50, α-toxin production” value in the experiment on S. warneri, with S. epidermidis (51625) and in the experiment with S. haemolyticus were 0.7 µg/mL (≈ 1.69 µM), 0.6 µg/mL (≈ 1.45 µM) and 0.5 µg/mL (≈ 1.21 µM), respectively. The “Inhibition of α-Hemolysin production” value with S. aureus [3] is reported as 2.0 (4) μg/ml. In the experiment with S. aureus [3], the “Inhibition of α-toxin production (in words)” value was “inhibited α-toxin production”.
For `C[C@@H](O)[C@H](NC(=O)[C@H](Cc1cn(C(=O)Sc2ccccc2)c2ccccc12)NC(=O)[C@@H]1CCCN1C(=O)[C@H](CO)NC(=O)[C@H](Cc1ccc(O)cc1)NC(=O)OCC1c2ccccc2-c2ccccc21)C(=O)N[C@@H](CC(N)=O)C(=O)N[C@@H](Cc1ccccc1)C(=O)O` [VIF-1, (Fmoc-Tyr)-Ser-Pro-Trp(phenylthiocarbamate)-Thr-Asn-Phe] (Fmoc-YSPW(X1)TNF-OH; C-terminus assumed), the “Lowest concentration that suppressed release of TSST-1” value in the experiment with S. aureus [1] came out at 0.2 µg/mL. For the same compound, the “Inhibition of RNA III activation” value with RNAIII [2] is 1.5 µg/mL. The “% Survival at 24 hr.” value is recorded as 67% in the experiment with S. aureus [4] (1 mg/kg); 83% in the experiment on S. aureus [4] (3 mg/kg); 83% in the experiment on S. aureus [4] (15 mg/kg); 13% in the experiment on S. aureus [5] (6 mg/kg IP); 50% with S. aureus [5] (15 mg/kg IP); 67% in the experiment on S. aureus [5] (20 mg/kg IP). Moreover, the “Number of mice that survived at 24 hours post-injection (in words)” value with S. aureus [4] is “effective to significantly increase the number of mice that survived”. Moreover, the “IC50, α-toxin production” value was found to be 0.1 µg/mL (≈ 0.0786 µM) in the experiment with S. warneri and 0.6 µg/mL (≈ 0.472 µM) with S. aureus [3]. Further, the “IC50 for inhibition of hemolysin production” value with S. warneri turned out to be 0.10 µg/mL. Further, the “Inhibition of hemolysin production (in words)” value in the experiment on S. warneri was “potently inhibited”. In the experiment on S. aureus [5], the “Number of mice that survived at 24 hours post-injection relative to vehicle (in words)” value is listed as “effective to significantly increase the number of mice that survived”. Further, the “Inhibition of α-Hemolysin production” value with S. aureus [3] amounted to 1.1 µg/mL. For the same compound, the “Inhibition of α-toxin production (in words)” value in the experiment with S. aureus [3] is “inhibited α-toxin production”.
Consider “ProCysThrAsnPhe (PCTNF; printed: ProCysThrAsnPhe) [peptide 1]”, for which the “Inhibition of induction of RNAIII (in words)” value in the experiment with RNAIII [7] is “inactive”.
For the compound YSPWTNF [PEP, reference compound], the “Inhibition of RNAIII induction (in words)” value in the experiment with RNAIII [2] is recorded as “no significant activity”. The “Inhibition of induction of RNAIII (in words)” value in the experiment on RNAIII [7] was “inhibit induction of RNAIII as effectively as RIP”. Moreover, in the experiment on S. aureus [3], the “Inhibition of α-toxin / virulence factor production (in words)” value is “no significant activity”.

The values above are taken from US20030050248A1 (priority 2000, published 2003).
